Assay results published in ChEMBL document CHEMBL1201862, “PubChem BioAssay data set” (2004).
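Method: 48-hour compound exposure of cells in 96-well plates, five concentrations, linear interpolation of endpoints. GI50 = concentration required for 50% inhibition of growth.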 Activity calls are given as the source filed them. Rule as the data show it: active = GI50 up to about 1.1 µM and inactive = higher.

Assays:
Experiment in all cases: NCI anticancer screen, dose series, 48 h
EKVX = test system: EKVX
OVCAR-4 = test system: OVCAR-4
A549 = test system: A549
M14 = test system: M14
Hs-578T = test system: Hs-578T
786-0 = test system: 786-0
UACC-62 = test system: UACC-62
OVCAR-5 = test system: OVCAR-5
LOX IMVI = test system: LOX IMVI
COLO 205 = test system: COLO 205
K562 = test system: K562
Malme-3M = test system: Malme-3M
HCT-116 = test system: HCT-116
HT-29 = test system: HT-29
KM12 = test system: KM12
PC-3 = test system: PC-3
NCI-H460 = test system: NCI-H460
RXF 393 = test system: RXF 393
HCC 2998 = test system: HCC 2998

Measured: GI50

COc1ccc(/C=C2\NC(=S)N(CN3CCOCC3)C2=O)cc1
inactive: EKVX > 100 µM | OVCAR-4 > 100 µM | A549 > 100 µM | M14 > 100 µM | Hs-578T > 100 µM | 786-0 > 100 µM | UACC-62 > 100 µM | OVCAR-5 > 100 µM | LOX IMVI > 100 µM | COLO 205 > 100 µM | K562 > 100 µM | Malme-3M > 100 µM | HCT-116 > 100 µM | HT-29 > 100 µM | KM12 > 100 µM | PC-3 > 100 µM

C=CCN1C(=O)/C(=C\c2cc(C(C)(C)C)c(O)c(C(C)(C)C)c2)NC1=S
inactive: EKVX 19.9 µM | NCI-H460 15.3 µM | OVCAR-4 19.3 µM | A549 24.3 µM | M14 26 µM | Hs-578T 48.2 µM | 786-0 20.8 µM | UACC-62 15.8 µM | OVCAR-5 31.3 µM | LOX IMVI 16.4 µM | COLO 205 16.9 µM | K562 19.9 µM | Malme-3M 7.19 µM | HCT-116 12.7 µM | HT-29 17.3 µM | KM12 19.4 µM | PC-3 14.2 µM

CCOC(=O)c1cn2c(n1)sc1cccc(C)c12
inactive: EKVX 52.6 µM | RXF 393 > 100 µM | NCI-H460 71.8 µM | A549 > 100 µM | M14 > 100 µM | Hs-578T 21.7 µM | HCC 2998 > 100 µM | 786-0 > 100 µM | UACC-62 > 100 µM | OVCAR-5 > 100 µM | LOX IMVI > 100 µM | COLO 205 > 100 µM | Malme-3M > 100 µM | HCT-116 > 100 µM | KM12 > 100 µM | PC-3 > 100 µM

COc1cc(O)c2c(c1)C(=O)c1cc3c(c(O)c1C2=O)C(OC1OC(C)C(OC)C(O)C1OC)C(OC)C(C)(O)C3=O (stereo not given)
inactive: EKVX 3.37 µM | NCI-H460 2.72 µM | OVCAR-4 4.03 µM | A549 3.55 µM | M14 3.02 µM | Hs-578T 8.47 µM | HCC 2998 5.02 µM | 786-0 5.28 µM | OVCAR-5 16.1 µM | LOX IMVI 2.7 µM | COLO 205 3.09 µM | K562 3.58 µM | Malme-3M 2.39 µM | HCT-116 2.81 µM | HT-29 3.37 µM | KM12 3.7 µM | PC-3 3.36 µM

CC(=O)C1C(=O)C(=O)N(c2ccc(Br)cc2)C1=O (stereo not given)
inactive: EKVX > 100 µM | RXF 393 > 100 µM | NCI-H460 > 100 µM | OVCAR-4 > 100 µM | A549 > 100 µM | M14 > 100 µM | Hs-578T > 100 µM | HCC 2998 > 100 µM | 786-0 > 100 µM | UACC-62 > 100 µM | OVCAR-5 > 100 µM | LOX IMVI > 100 µM | COLO 205 > 100 µM | HCT-116 > 100 µM | HT-29 > 100 µM | KM12 > 100 µM | PC-3 > 100 µM

CC1=NN(c2nc(N)nc(-c3sccc3N)n2)C(C)(C)C1
inactive: EKVX 82.6 µM | NCI-H460 81.1 µM | OVCAR-4 21.7 µM | A549 35.8 µM | M14 23.9 µM | Hs-578T 89.3 µM | HCC 2998 > 100 µM | 786-0 > 100 µM | UACC-62 58.3 µM | OVCAR-5 > 100 µM | LOX IMVI 90.4 µM | COLO 205 79.1 µM | K562 44.1 µM | Malme-3M 47.3 µM | HCT-116 96.4 µM | HT-29 > 100 µM | KM12 46.1 µM
